The source of these data is patent US4281009A, “Hydantoin derivatives” (Nippon Zoki Pharmaceutical Co., Ltd., priority 1978, dated 1981).

Each structure is given as a SMILES string.

Data set [1] deals with isolated duodenum. Description: Recovery of acetylcholine sensitivity of isolated duodenum of SART stress mice (Magnus method). The format is in vivo, mice (dd-strain male). The following applies: 6th day, Ach 10^-7 g/ml, Average ± S.E. The text has this:
(§1) SART stress animals used in the tests described below were raised according to a method of Kita, et al. [Folia Pharmacol. Japan.: 71, 195-210 (1975)].
3. Effect of recovering acetylcholine (Ach) sensitivity of isolated intestinal tract:
Groups each comprising at least 10 dd-strain male mice were used. The compounds of the present invention or other comparative drugs were given intraperitoneally once a day during the stress-causing operation. On the 6th day, Ach (10^-7 g/ml.) sensitivity of isolated duodenum was examined using the Magnus method.

Data set [2] can be described thus: Acute toxicity test (LD50, Litchfield-Wilcoxon), mice. Particulars: mouse, in vivo, ip, intraperitoneal. The method, then:
(§2) Toxicity tests were carried out by intraperitoneal administration of the compound of the present invention to groups each comprising 10 ICR-strain mice and SD-strain rats. LD50 was calculated by the Litchfield-Wilcoxon method based on the number of death 72 hours after the administration.

Data set [3] is described as follows: Acute toxicity test (LD50, Litchfield-Wilcoxon), rats. Particulars: rat, in vivo, ip, intraperitoneal. The method, then: as §2
Data set [4] relates to normal mice and SART stress mice. Kind of data set: Analgesic effect, tail pressure method (Randall-Selitto's device). Particulars: 60 minutes; for change in vivo at 100 mg/kg / change in vivo at 200 mg/kg: Mus musculus, ip, 1 h; for change in vivo at 100 mg/kg: intraperitoneal 100 mg/kg; for change in vivo at 200 mg/kg: intraperitoneal 200 mg/kg; for Analgesic effect: intraperitoneal 50 mg/kg. The format is in vivo, mice (ddY-strain male). On the procedure: 5.1 Tail pressure method:
Randall-Selitto's device for determining analgesic effect by pressure stimulation was used. […]. The compounds of the present invention or other comparative drugs were given thereto and analgesic effect was determined. The effect was judged by measuring pressure applied 60 minutes after the intraperitoneal administration of the compounds of the present invention. The pressure thus measured was divided by a pressure before the administration. The value thus obtained was compared with that of a control group (to which 10 ml./Kg of 0.5% sodium salt of carboxymethylcellulose or 0.5% Tween 80 was given). When the compounds of the present invention were given perorally and other comparative drugs were given, an average of the pressure at 30, 60, 90 and 120 minutes after the administration was employed for evaluating the effect.

Data set [5] deals with ddY-strain male mice. Kind of data set: Effect of prolongation of sleeping time (hexobarbital). In kind it is in vivo. Particulars: for change in vivo at 100 mg/kg / change in vivo at 300 mg/kg: Mus musculus, ip; for change in vivo at 100 mg/kg: 100 mg/kg intraperitoneal; for change in vivo at 300 mg/kg: 300 mg/kg intraperitoneal. On the procedure: 7. Effect of prolongation of sleeping time:
Groups of mice each comprising 10 ddY-strain male mice were used. Sodium salt of hexobarbital was given intraperitoneally. Thereafter, the period of time in which righting reflex disappeared was measured. The effect was evaluated on the basis of prolongation of time of disappearance of righting reflex by the intraperitoneal administration of the compounds of the present invention as compared with control mice.

The subject of data set [6] is normal mice and SART stress mice. Description: Analgesic effect, D'Amour-Smith method. In kind it is in vivo, mice (ddY-strain male). Particulars: Mus musculus, ip; for responders at 100 mg/kg: intraperitoneal 100 mg/kg; for responders at 200 mg/kg: intraperitoneal 200 mg/kg. On the procedure: 5.3. D'Amour-Smith method:
Groups each comprising 10 ddY-strain male normal mice and SART stress mice to which SART stress had been applied for 4 days were used. The root of the tail of the mouse to which black ink was applied was irradiated with infrared rays for up to 15 seconds. Time required till escape response was observed was measured. The effect was shown by the ratio of the mice in which an average value of the response time at 30, 60, 90 and 120 minutes after the administration of the compounds of the present invention or other comparative drugs was prolonged to at least 2 times as long as the time before the administration.

Data set [7] shares this test system. Kind of data set: Analgesic effect, acetic acid writhing method. In kind it is in vivo. Particulars: Mus musculus, sc, 100 mg/Kg subcutaneously. On the procedure:
5.2. Acetic acid writhing method: 0.1 ml./10 g of isotonic sodium chloride solution containing 0.7% acetic acid was given intraperitoneally to groups of mice each comprising 5 normal mice and 5 SART stress mice to which SART stress had been applied for 8 days. Writhing syndromes number appeared for 15 minutes after the administration was measured. The effect was evaluated by giving 100 mg/Kg of the compounds of the present invention or DPH subcutaneously and comparing the writhing syndromes number of the mice with that of control mice.
(In general: Writhing tests count abdominal constrictions after an irritant is injected.)

The test system of data set [8] is SART stress mice. Kind of data set: Inhibitory effects on increase of heart rate and elongation of QRS-time in SART stress mice. In kind it is in vivo, mice (dd-strain male). Particulars: 100 mg/kg/day, 9th day, Average ± S.D. On the procedure:
as §1
2. Inhibitory effects on increase of heart rate and elongation of QRS-time in stress animals:
Groups of mice each comprising 11 or 12 dd-strain male mice were divided into three groups in the same manner as above and heart rate and QRS-time were determined on the 9th day after initiation of the tests.

Consider `CCCC(C)(COC(N)=O)COC(N)=O` [Meprobamate], for which the “Ach-induced contraction of the isolated deodedum” value (from here on “Ach-induced contraction”) in data set [1] (5 mg/kg/day intraperitoneal) came out at 31 ± 2%.

In general, LD50 refers to the dose at which mortality reaches 50%. As for `O=C1NC(=O)C(c2ccccc2)(c2ccccc2O)N1` (centres unmarked) [Compound 6, 5-(2-Hydroxyphenyl)-5-phenylhydantoin], the LD50 at 72 h in data set [2] (female), in data set [2] (male), in data set [3] (female) and in data set [3] (male) was above 5000 mg/kg in each case. In addition, the values for the change in vivo at 100 mg/kg in data set [4] (SART stress mice), in data set [4] (normal mice) and in data set [5] were 62.7%, 38.1% and 30.6%, respectively. The compound further came in with a change in vivo at 300 mg/kg in data set [5] of 33.7%.

As for `CN(C)CCCN1c2ccccc2CCc2ccccc21` [Imipramine], the “Ach-induced contraction” value amounted to 44 ± 15% in data set [1] (5 mg/kg/day intraperitoneal) and 100 ± 4% in data set [1] (10 mg/kg/day intraperitoneal).

`CCCOc1ccccc1C1(c2ccccc2OCCC)NC(=O)NC1=O` [Compound 9, 5,5-Bis(2-propoxyphenyl)hydantoin]: the 50% lethal dose (LD50) at 72 h in data set [2] (female), in data set [2] (male), in data set [3] (female) and in data set [3] (male) was above 5000 mg/kg throughout. Besides, the change in vivo at 200 mg/kg in data set [4] (SART stress mice) came out at 74.4%; in data set [4] (normal mice), 21.3%. For the same compound, the “Effect of prolongation of sleeping time” value in data set [5] (50 mg/kg intraperitoneal) came to 10.5%. The compound also returned a change in vivo at 300 mg/kg in data set [5] of 39%.

As for `COc1ccc(C2(c3ccc(OC)c(CO)c3)NC(=O)NC2=O)cc1CO` [Compound 21, 5,5-Bis(3-hydroxymethyl-4-methoxyphenyl)hydantoin], the LD50 at 72 h in data set [2] (female), in data set [2] (male), in data set [3] (female) and in data set [3] (male) was above 5000 mg/kg in each case. Also, in data set [5], the change in vivo at 100 mg/kg stood at 25.1%.

The term inhibition in vivo denotes the drop in the measured response relative to a control, in per cent. A high value points to a response far below the control. With `O=C1NC(=O)C(c2ccc(O)cc2)(c2ccc(O)c(O)c2)N1` (centres unmarked) [Compound 14, 5-(3,4-Dihydroxyphenyl)-5-(4-hydroxyphenyl)hydantoin], the LD50 at 72 h came to 1200 mg/kg in data set [2] (female), 1280 mg/kg in data set [2] (male), 1480 mg/kg in data set [3] (female) and 1500 mg/kg in data set [3] (male). In addition, the values for the change in vivo at 100 mg/kg in data set [4] (SART stress mice), in data set [4] (normal mice) and in data set [5] were 102%, 42.6% and 20.2%, respectively. Besides, the values for the Analgesic effect in data set [4] (SART stress mice) and in data set [4] (normal mice) were 78.3% and 35.2%, respectively. The responders at 100 mg/kg turned out to be 60% in data set [6] (SART stress mice) and 30% in data set [6] (normal mice). Also, the inhibition in vivo at 100 mg/kg in data set [7] (SART stress mice) worked out at 36.2%; in data set [7] (normal mice), 5%.

As to `COc1cc(C2(c3cc(OC)c(OC)c(OC)c3)NC(=O)NC2=O)cc(OC)c1OC` [Compound 23, 5,5-Bis(3,4,5-trimethoxyphenyl)hydantoin], the LD50 at 72 h in data set [2] (female), in data set [2] (male), in data set [3] (female) and in data set [3] (male) was above 5000 mg/kg each time. Further, the change in vivo at 100 mg/kg in data set [4] (SART stress mice) was 66%; in data set [4] (normal mice), 38.1%; in data set [5] it was 19.9%. The change in vivo at 300 mg/kg in data set [5] came out at 22.6%. Moreover, the responders at 200 mg/kg in data set [6] (SART stress mice) was found to be 40%; in data set [6] (normal mice), 20%.

Regarding `COc1cc(C2(c3ccc(OC)c(OC)c3OC)NC(=O)NC2=O)cc(OC)c1OC` (centres unmarked) [Compound 22, 5-(2,3,4-Trimethoxyphenyl)-5-(3,4,5-trimethoxyphenyl)hydantoin], the LD50 at 72 h in data set [2] (female), in data set [2] (male), in data set [3] (female) and in data set [3] (male) was above 5000 mg/kg in each case. In addition, in data set [5], the change in vivo at 100 mg/kg was found to be 13.1%.

On to `COc1ccc(C2(c3ccc(OC)c(OC)c3)NC(=O)NC2=O)cc1OC` [Compound 19, 5,5-Bis(3,4-dimethoxyphenyl)hydantoin], for which the median lethal dose (LD50) at 72 h in data set [2] (female), in data set [2] (male), in data set [3] (female) and in data set [3] (male) was above 5000 mg/kg in each case. In data set [5], the change in vivo at 100 mg/kg turned out to be 10%.

For the compound `CN(C)CCOC(c1ccccc1)c1ccccc1` [Diphenhydramine], the “Ach-induced contraction” value in data set [1] (10 mg/kg/day intraperitoneal) came out at 25 ± 5%.

In the case of `O=C1NC(=O)C(c2cccc(O)c2)(c2cccc(O)c2)N1` [Compound 8, 5,5-Bis(3-hydroxyphenyl)hydantoin], the LD50 at 72 h worked out at 1270 mg/kg in data set [2] (female), 1350 mg/kg in data set [2] (male), 1660 mg/kg in data set [3] (female) and 1800 mg/kg in data set [3] (male). Moreover, the change in vivo at 100 mg/kg in data set [4] (SART stress mice) stood at 54.7%; in data set [4] (normal mice), 22.9%; in data set [5], 16.9%.

Turning to `O=C1NC(=O)C(c2ccc(O)cc2)(c2ccc(O)cc2O)N1` (centres unmarked) [Compound 31, 5-(2,4-Dihydroxyphenyl)-5-(4-hydroxyphenyl)hydantoin], the median lethal dose (LD50) at 72 h was 1200 mg/kg in data set [2] (female), 1220 mg/kg in data set [2] (male), 1510 mg/kg in data set [3] (female) and 1540 mg/kg in data set [3] (male). Also, the change in vivo at 100 mg/kg in data set [5] stood at 19.1%.

Consider `NC(=O)C1(N2CCCCC2)CCN(CCCN2c3ccccc3CCc3ccccc32)CC1` [Carpipramine], for which the “Ach-induced contraction” value in data set [1] (5 mg/kg/day intraperitoneal) is listed as 52 ± 6%; in data set [1] (10 mg/kg/day intraperitoneal), 110 ± 26%.

`CN1C(=O)CN=C(c2ccccc2)c2cc(Cl)ccc21` [Diazepam]: the “Ach-induced contraction” value in data set [1] (5 mg/kg/day intraperitoneal) is recorded as 25 ± 6%.

`CCC1(c2ccccc2O)NC(=O)NC1=O` (centres unmarked) [Compound 25, 5-Ethyl-5-(2-hydroxyphenyl)hydantoin]: the LD50 at 72 h in data set [2] (female) is 1040 mg/kg; in data set [2] (male) it was 1230 mg/kg; in data set [3] (female) it was 1480 mg/kg; in data set [3] (male), 1600 mg/kg. Also, the change in vivo at 200 mg/kg in data set [4] (SART stress mice) stood at 49%; in data set [4] (normal mice), 35.5%. This compound registered a change in vivo at 300 mg/kg in data set [5] of 55.4%. Moreover, the inhibition in vivo at 100 mg/kg in data set [7] (SART stress mice) turned out to be 19.8%; in data set [7] (normal mice) it was 1.9%.

For the compound `COc1ccc(C2(c3ccc(OC)c(C)c3)NC(=O)NC2=O)cc1` (centres unmarked) [Compound 3, 5-(4-methoxy-3-methylphenyl)-5-(4-methoxyphenyl)hydantoin], the median lethal dose (LD50) at 72 h in data set [2] (female), in data set [2] (male), in data set [3] (female) and in data set [3] (male) was above 5000 mg/kg in each case. Moreover, in data set [8], the Heart rate is 710 ± 83 min⁻¹. Besides, in data set [8], the QRS-time is 13.1 ± 1.7 1/1000 sec. For the same compound, the change in vivo at 100 mg/kg in data set [4] (SART stress mice) is 91%; in data set [4] (normal mice), 47.4%; in data set [5], 76.6%. Also, the Analgesic effect in data set [4] (SART stress mice) is on record as 60.3%; in data set [4] (normal mice) it was 44.3%. Moreover, in data set [5], the change in vivo at 300 mg/kg was found to be 93.9%. Also, the responders at 100 mg/kg turned out to be 40% in data set [6] (SART stress mice) and 30% in data set [6] (normal mice). The inhibition in vivo at 100 mg/kg amounted to 22% in data set [7] (SART stress mice) and 2% in data set [7] (normal mice).
